In patent US20240254175A1, “NOVEL SELECTIVE ANT[…] PEPTIDES” (BOMBI BIOMICS BV, priority 2021, published 2024):
Non-standard residues stand in square brackets, D forms with d. Residues, ends and D or L forms follow the SMILES beside them. No end group written: not given here. *: point of attachment. Palmitoyl = CCCCCCCCCCCCCCCC(=O)*

Legend:
C. acnes biofilm = settings: strains with the strongest C. acnes biofilm formation ability
Method: Briefly, 250 μl of bacterial cells (1×10^6 CFU/ml) of 10 strains (C. acnes 3, 4, 23, 25, 55, 61, 62, 63, 68, 78) (FIG. 9) with the strongest biofilm formation ability were inoculated in a Greiner polyethylene 96well plate (Sigma Aldrich); TSB culture medium containing no bacteria was used as the blank control, and the plate was incubated at 37° C. for 24 hours. The culture medium was subsequently removed, and wells were carefully washed with PBS three times to remove C. acnes bacteria.
Subsequently, 250 μl of TSB culture medium containing the aforementioned polypeptides in serial doubling dilutions was added to each well. TSB medium without any of the polypeptides was used as a negative control, and plates were incubated at 37° C. for 24 hours. If OD600<0.1, there was no bacterial growth, and the lowest concentration without bacterial growth at this time point was recorded; this is the Minimum Biofilm Inhibitory Concentration (MBIC). Then, the cells and polypeptides in the 96-well cell culture plate were washed with PBS, and 250 μl of TSB culture medium was added to each well.
The plates were incubated at 37° C. for 24 hours to re-grow the surviving biofilm bacteria. […] The lowest concentration at which no bacterial growth was recorded is the minimal biofilm eradication concentration (MBEC).

[1] = system: other bacteria tested (C. granulosum, C. avidum, S. aureus, S. epidermis, C. striatum); assay: In vitro killing assay on the other (non C. acnes) bacteria; format: cell-based
Method: Inoculi of mid-log phase bacteria were prepared by incubating the above isolated colonies from blood agar plates in Tryptic Soy Broth (TSB) medium (Becton Dickinson, Le Pont de Clax, France) for 2.5 hours and then diluted to the concentration needed.
For the in vitro killing assay on mid-log phase bacteria, each of the above strains were resuspended to a concentration of 1×10^6 bacteria/ml in phosphate buffered saline (PBS). Subsequently, 200 μl was added to a concentration range of peptides Wildtype BLP-7, BMBN-1, BMBN-2, BMBN-3, BMBN-4, BMBN-5, BMBN-6, and BMBN-7 that were lyophilized in advance. Subsequently, the bacteria-peptide mixtures were incubated for 1 hour at 37° C. To establish the killing capacity and specificity of these peptides, the suspensions were serially diluted and plated onto DST agar plates to measure viable CFU counts. IC90, IC99 and IC99.9 values were calculated by linear regression analysis. […] Results were pooled from 4 independent experiments concerning the above C. acnes strains (FIG. 2B) and 5 independent experiments concerning the other non C. acnes related strains (FIG. 2B continued). The results are expressed as mean±standard deviation (SD).

human erythrocytes = system: human erythrocytes
Method: A hemolytic assay was performed as previously described by Zelezetsky et al.. Freshly drawn human erythrocytes were rinsed three times with phosphate buffered saline (PBS) and resuspended in PBS to 4% (v/v). […] PBS and 0.1% (v/v) Triton-X 100 were used as 0% and 100% hemolytic control respectively. Plates were incubated at 37° C. for 1 hour.
Subsequently, the plate was centrifuged and the supernatant was transferred to a new plate. The release of hemoglobin in the supernatant was monitored at absorbance of 450 nm using an Infinite M1000 Microplate reader (Tecan). Results were pooled from three independent experiments and expressed as mean±SD. HC10 and HC50 were defined as the peptide concentrations causing 10% and 50% hemolysis on human erythrocytes, respectively.

Compound: CCCCCCCCCCCCCCCC(=O)NCC(=O)N[C@H](C(=O)NCC(=O)NCC(=O)N[C@@H](C)C(=O)N[C@@H](CC(C)C)C(=O)N[C@@H](CC(C)C)C(=O)N[C@@H](CO)C(=O)N[C@@H](C)C(=O)NCC(=O)N[C@@H](CCCCN)C(=O)N[C@@H](CO)C(=O)N[C@@H](C)C(=O)N[C@@H](CC(C)C)C(=O)N[C@@H](CCCCN)C(=O)NCC(=O)N[C@@H](CC(C)C)C(=O)N[C@@H](C)C(=O)N[C@@H](CCCCN)C(=O)NCC(=O)N[C@@H](CC(C)C)C(=O)N[C@@H](C)C(=O)N[C@@H](CCC(=O)O)C(=O)N[C@@H](Cc1c[nH]cn1)C(=O)N[C@@H](Cc1ccccc1)C(=O)N[C@@H](C)C(=O)N[C@@H](CC(N)=O)C(N)=O)[C@@H](C)CC [BMBN-1] (Palmitoyl-GIGGALLSAGKSALKGLAKGLAEHFAN-NH2)
- MBEC (concentration that eradicates the biofilm) (C. acnes biofilm): 235 to 496 µg/mL

Compound: CCCCCCCCCCCCCCCC(=O)N[C@@H](CCC(=O)O)C(=O)N[C@@H](CCCNC(=N)N)C(=O)N[C@@H](CC(N)=O)C(=O)N[C@@H](CC(N)=O)C(=O)N[C@@H](Cc1ccccc1)C(=O)NCC(=O)NCC(=O)NCC(=O)N[C@H](CC(N)=O)C(=O)N[C@H](C)C(=O)N[C@H](Cc1ccccc1)C(=O)N[C@H](Cc1c[nH]cn1)C(=O)N[C@H](CCC(=O)O)C(=O)N[C@H](C)C(=O)N[C@H](CC(C)C)C(=O)NCC(=O)N[C@H](CCCCN)C(=O)N[C@H](C)C(=O)N[C@H](CC(C)C)C(=O)NCC(=O)N[C@H](CCCCN)C(=O)N[C@H](CC(C)C)C(=O)N[C@H](C)C(=O)N[C@H](CO)C(=O)N[C@H](CCC(=O)O)C(=O)NCC(=O)N[C@H](C)C(=O)N[C@H](CO)C(=O)N[C@H](CC(C)C)C(=O)N[C@H](CC(C)C)C(=O)N[C@H](C)C(=O)NCC(=O)NCC(=O)N[C@@H](C(=O)NCC(N)=O)[C@H](C)CC [BMBN-6] (Palmitoyl-ERNNFGGG[dN][dA][dF][dH][dE][dA][dL]G[dK][dA][dL]G[dK][dL][dA][dS][dE]G[dA][dS][dL][dL][dA]GG[dI]G-NH2)
- effect on other, untargeted bacteria / specificity towards C. acnes (in words) [1]: specificity towards C. acnes only negligibly decreased

Compound: CCCCCCCCCCCCCCCC(=O)N[C@H](CCC(=O)O)C(=O)N[C@H](CCCNC(=N)N)C(=O)N[C@H](CC(N)=O)C(=O)N[C@H](CC(N)=O)C(=O)N[C@H](Cc1ccccc1)C(=O)NCC(=O)NCC(=O)NCC(=O)NCC(=O)N[C@@H](C(=O)NCC(=O)NCC(=O)N[C@H](C)C(=O)N[C@H](CC(C)C)C(=O)N[C@H](CC(C)C)C(=O)N[C@H](CO)C(=O)N[C@H](C)C(=O)NCC(=O)N[C@H](CCC(=O)O)C(=O)N[C@H](CO)C(=O)N[C@H](C)C(=O)N[C@H](CC(C)C)C(=O)N[C@H](CCCCN)C(=O)NCC(=O)N[C@H](CC(C)C)C(=O)N[C@H](C)C(=O)N[C@H](CCCCN)C(=O)NCC(=O)N[C@H](CC(C)C)C(=O)N[C@H](C)C(=O)N[C@H](CCC(=O)O)C(=O)N[C@H](Cc1c[nH]cn1)C(=O)N[C@H](Cc1ccccc1)C(=O)N[C@H](C)C(=O)N[C@H](CC(N)=O)C(N)=O)[C@H](C)CC [BMBN-7] (Palmitoyl-[dE][dR][dN][dN][dF]GGGG[dI]GG[dA][dL][dL][dS][dA]G[dE][dS][dA][dL][dK]G[dL][dA][dK]G[dL][dA][dE][dH][dF][dA][dN]-NH2)
- hemolytic activity (in words) (human erythrocytes): negligible hemolytic activity
- MBIC (concentration that inhibits the biofilm) (C. acnes biofilm): 56 to 117 µg/mL

Compound: GIGGALLSAGKSALKGLAKGLAEHFAN-NH2 [Wildtype BLP-7, reference compound]
- hemolytic activity (in words) (human erythrocytes): within the range of negligible hemolytic activity
